Experimental data reported in PMC9257522, “Machine Learning for Discovery of New ADORA Modulators” (Frontiers in Pharmacology, 2022).
“And” between values parts separate entries of the source, which are not always exact repeats. Equal values may be shown once. “Also recorded” adds a separate entry of the source. Where a name gives a salt, the structure may show the parent alone.

Tests used:
[1] = system: T1, human A1AR; assay: A1AR cAMP assay, HEK293 A1AR Nomad cell line (Innoprot), agonist mode; type: cell-based; details: compounds at 10 µM, normalized to 10 µM NECA (100%) and vehicle DMSO (0%)
T1 construct: host or cells: HEK293 A1AR Nomad cell line
Text: For screening of the initial compounds predicted by machine learning models to activate A1AR receptor, we used the HEK293 A1AR Nomad cell line, which consists of HEK293 cells stably expressing human A1AR with no tag. This cell line has been designed to assay compounds or analyze their capability to modulate the A1AR. When the agonist binds to A1AR in this engineered cell line a Go protein is activated, which in turn, triggers a cellular response mediated by cAMP inhibition. This cellular response can be measured by quantifying the increase in fluorescence intensity and its cellular distribution. An agonist assay was performed for 29 compounds (predicted to be active by the machine learning model) in the human recombinant HEK293 A1AR Nomad cell line using a fluorescence-based assay. An agonist effect of the compounds was measured by quantifying the changes in the fluorescence emission cAMP Nomad biosensor, this elevation of fluorescence was analyzed using a plate reader Synergy 2 (Biotek, Winooski, VT). The error bars represent the standard deviation among the three replicate wells. The 29 compounds were tested at 10 μM using nonselective AR agonist adenosine-5′-N-ethyluronamide (NECA) at 10 μM as a reference.

[2] = system: T2, A1AR; assay: cAMP assay in AR-expressing HEK293 cells (ALPHAScreen), A1AR; type: cell-based, human; details: A1AR-expressing HEK cells, cAMP inhibition, Cl-ENBA reference full agonist
T2 construct: expressed in transfected cells; host or cells: HEK293
Procedure: (§1) HEK293 cells were grown in 96-well plates in DMEM supplemented with 10% fetal bovine serum, 100 Units/ml penicillin, 100 µg/ml streptomycin, and 2 µmol/ml glutamine. […] For A1AR and A3AR, after incubation with agonists for 20 min, forskolin (10 µM) was added and the mixture incubated for an additional 15 min. The reaction was terminated upon removal of the supernatant and addition of 100 µl Tween-20 (0.3%). Intracellular cAMP levels were measured with an ALPHAScreen cAMP assay kit as instructed by the manufacturer (PerkinElmer).

[3] = target: T3, human A2AAR (Homo sapiens, UniProt P29274); assay: cAMP assay in AR-expressing HEK293 cells (ALPHAScreen), A2AAR; type: cell-based
T3 construct: expressed in transfected cells; host or cells: HEK293
Procedure: as §1

[4] = system: T4, A1AR; assay: A1AR-bla U2OS agonist screen (beta-arrestin/TEV, beta-lactamase reporter; Thermo Fisher); type: cell-based
T4 construct: host or cells: A1AR-bla U2OS
Procedure: A1AR-bla U2OS cells are thawed and resuspended in Assay Media (Freestyle media) to a concentration of 312,500 cells/ml. 32 μl of cell suspension (10,000 cells) was added to each well of a 384-well TC-Treated assay plate. Cells in Assay Media were incubated for 16–24 h in the plate at 37°C/5% CO2 in a humidified incubator. 4 μl aliquots of a 10X serial dilution of NECA (control agonist starting concentration, 500 nM) or compounds were added to appropriate wells of the plate. 4 μl of Assay Media was added to all wells to bring the final assay volume to 40 μl. The plate was incubated for 5 h at 37°C/5% CO2 in a humidified incubator. 8 μl of 1 μM substrate + Solution D Loading Solution was added to each well and the plate was incubated for 2 h at room temperature. The plate was read on a fluorescence plate reader.
(§2) This parental cell line stably expresses a beta‐arrestin/TEV protease fusion protein and the beta‐lactamase reporter gene under the control of a UAS response element. […] We also used a secondary assay PathHunter® β-Arrestin assay, which monitors the activation of A1AR in a homogenous, non-imaging assay format using a technology developed by DiscoverX called Enzyme Fragment Complementation (EFC) with β-galactosidase (β-Gal) as the functional reporter.

[5] = target: T3, human A2AAR; assay: Radioligand displacement binding, [3H]ZM241385, HEK293 membranes; details: 100 µM, mean ± standard error, three independent experiments
Procedure: (§3) HEK293 cells stably expressing the human A1AR, A2AAR, A3AR were cultured in DMEM supplemented with 10% fetal bovine serum, 100 Units/ml penicillin, 100 µg/ml streptomycin, and 2 µmol/ml glutamine. To prepare cell membranes, cells were detached from culture plates by scraping into cold PBS and centrifuged at 250 g for 5 min. The pellets were resuspended in ice-cold PBS buffer (pH 7.4) and then homogenized. After homogenization and suspension, cells were centrifuged at 1,000 g for 10 min, and the pellet was discarded. The suspension was then re-centrifuged at 20,000 g for 60 min at 4°C. […] The aliquots of membrane preparations were stored at −80°C until the binding experiments. For displacement binding assays, membrane preparations (20 µg proteins/tube) were incubated at 25°C for 60 min with a final concentration of [^3H]DPCPX (0.5 nM), [^3H]ZM241385 (1.0 nM), […] [^125I]I-AB-MECA (0.1 nM) for A1AR, A2AAR, A3AR, respectively, in a mixture containing 50 µl of increasing concentrations of a test ligand in a total assay volume of 200 µl of 50 mM Tris HCl, pH 7.4, containing 10 mM MgCl2. Nonspecific binding was determined using 100 µM of XAC. The reaction was terminated by filtration with GF/B filters using a Brandel (Gaithersburg, MD) 24-channel harvester. Filters were placed in scintillation vials containing 5 ml of Hydrofluor scintillation buffer (National Diagnostics, Atlanta, GA) and counted using a Tricarb 2810TR liquid scintillation counter (PerkinElmer, Waltham, MA).

[6] = system: T1, human A1AR; assay: Radioligand displacement binding, [3H]DPCPX, HEK293 membranes; details: mean ± standard error, three independent experiments
Procedure: as §3

[7] = system: T4, A1AR; assay: PathHunter β-Arrestin assay (Eurofins/DiscoverX), agonist mode; type: cell-based; details: maximum concentration 20 µM; normalized to control agonist CPA and vehicle
Procedure: PathHunter cell lines were expanded from freezer stocks according to standard procedures. […] For agonist determination, cells were incubated with sample to induce response. Intermediate dilution of sample stocks was performed to generate 5X sample in assay buffer. […] Vehicle concentration was 1%. […] Microplates were read following signal generation with a PerkinElmer Envision™ instrument for chemiluminescent signal detection.
as §2

[8] = target: T5, human A1 receptor (Homo sapiens, UniProt P30542); assay: A1AR calcium influx assay in BA/F3 cells (Eurofins); details: maximum concentration tested 20 µM
T5 sequence (P30542 1-326): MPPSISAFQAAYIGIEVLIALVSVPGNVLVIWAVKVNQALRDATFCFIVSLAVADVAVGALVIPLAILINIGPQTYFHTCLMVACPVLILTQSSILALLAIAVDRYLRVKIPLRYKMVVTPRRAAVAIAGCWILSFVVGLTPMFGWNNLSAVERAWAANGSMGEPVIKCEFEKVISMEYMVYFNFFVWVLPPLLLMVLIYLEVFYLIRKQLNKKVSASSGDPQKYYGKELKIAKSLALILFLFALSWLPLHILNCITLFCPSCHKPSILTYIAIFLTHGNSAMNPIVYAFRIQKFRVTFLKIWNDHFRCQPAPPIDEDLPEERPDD
Procedure: This assay was performed using the screening services of Eurofins. Evaluation of the agonist activity of compounds at the human A1 receptor expressed in BA/F3 cells was determined by measuring their effect on cytosolic Ca^2+ ion mobilization using a fluorimetric detection method. The cells were suspended in HBSS buffer (Invitrogen) complemented with 20 mM Hepes and then distributed in microplates at a density of 5 × 10^4 cells/well. The fluorescent probe (Fluo8, AAT Bioquest, San Francisco, CA) mixed with probenicid in HBSS buffer (Invitrogen) complemented with 20 mM Hepes (Millipore, Burlington, MA) (pH 7.4) was then added into each well and equilibrated with the cells for 60 min at 30°C. Thereafter, the assay plates were positioned in a microplate reader (FlipR Tetra, Molecular Devices, San Jose, CA), which was used for the addition of the test compound, reference agonist or HBSS buffer (basal control), and for the measurements of changes in fluorescence intensity that varies proportionally to the free cytosolic Ca^2+ ion concentration.

[9] = system: T6, A2BAR; assay: cAMP assay in AR-expressing HEK293 cells (ALPHAScreen), A2BAR; type: cell-based
T6 construct: expressed in transfected cells; host or cells: HEK293
Procedure: as §1

[10] = target: T7, human A3AR (Homo sapiens, UniProt P0DMS8); assay: Radioligand displacement binding, [125I]I-AB-MECA, HEK293 membranes; details: 100 µM, mean ± standard error, three independent experiments
T7 sequence (P0DMS8 1-318): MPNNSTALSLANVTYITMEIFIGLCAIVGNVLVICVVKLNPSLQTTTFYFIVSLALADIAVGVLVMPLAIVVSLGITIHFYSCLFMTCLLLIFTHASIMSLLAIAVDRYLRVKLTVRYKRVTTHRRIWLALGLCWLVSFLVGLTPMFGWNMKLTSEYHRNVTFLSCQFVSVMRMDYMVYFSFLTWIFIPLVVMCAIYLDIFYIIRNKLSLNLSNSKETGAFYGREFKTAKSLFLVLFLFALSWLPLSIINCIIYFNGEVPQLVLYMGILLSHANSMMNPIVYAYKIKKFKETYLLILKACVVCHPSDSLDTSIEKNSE
Procedure: as §3

[11] = system: human A2BAR; assay: Radioligand displacement binding, [3H]DPCPX
[12] = target: A2AAR; details: read-out: Ki, A2AAR; A2AAR antagonist; quoted without method, no reference given; cited from earlier work

T3 sequence (P29274 whole entry): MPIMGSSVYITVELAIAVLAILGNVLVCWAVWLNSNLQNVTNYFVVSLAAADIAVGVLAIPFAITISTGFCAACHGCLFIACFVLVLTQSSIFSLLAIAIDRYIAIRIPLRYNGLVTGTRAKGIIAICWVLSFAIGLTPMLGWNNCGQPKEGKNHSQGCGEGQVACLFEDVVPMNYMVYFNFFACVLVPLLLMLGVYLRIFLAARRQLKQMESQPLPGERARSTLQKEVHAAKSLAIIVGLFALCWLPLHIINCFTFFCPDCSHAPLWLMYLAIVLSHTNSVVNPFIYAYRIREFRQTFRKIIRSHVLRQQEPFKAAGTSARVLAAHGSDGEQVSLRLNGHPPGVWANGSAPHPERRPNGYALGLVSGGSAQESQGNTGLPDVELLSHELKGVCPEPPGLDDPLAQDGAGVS

Cc1ccc(S(=O)(=O)/C=C/C#N)cc1 [BAY 11-7082, (E)-3-(4-methylphenylsulfonyl)-2-propenenitrile]
normalized activity with respect to the positive control [1]: 95.74%

CCN(CC)CCOc1ccc2c(c1)C(=O)c1cc(OCCN(CC)CC)ccc1-2 [Tilorone Hydrochloride]
normalized activity with respect to the positive control [1]: 55.9%

N#Cc1ccc(Oc2ccc3c(c2)COB3O)cc1 [Crisaborole]
cAMP, A1AR agonist activity [2]: Not active
cAMP, A1AR agonist activity ([2]; listed as crisaborole): without activity
cAMP, A2AAR activity (stimulation of cAMP) ([3]; A2AAR-expressing HEK293 cells): Active
Emax ([3]; A2AAR-expressing HEK293 cells, reference full agonist = 100% stimulation): 67%
EC50 ([3]; HEK293 cells expressing human A2AAR, absence of antagonist, read-out: EC50, stimulation of cAMP, A2AAR): 2.8 µM and 2.78 µM
activation of A1AR, A1AR-bla U2OS cells [4]: no activation; also recorded: without activity; also recorded: no agonist activity
Inhibition of specific binding, % inhibition at 100 µM, A2A ([3H]ZM241385) [5]: No significant binding inhibition
inhibition at 100 µM ([5]; read-out: Inhibition of specific binding, % inhibition at 100 µM, A2A ([3H]ZM241385)): 31.2 ± 5.6%
Inhibition of specific binding, % inhibition at 100 µM, A1 ([3H]DPCPX) [6]: 36.9 ± 3.4%
Inhibition of specific binding, % inhibition at 100 µM, A1 ([3H]DPCPX) ([6]; listed as crisaborole): weakly binding
normalized activity with respect to the positive control [1]: 98.52%
activation of A1AR, PathHunter β-Arrestin assay [7]: no activation; also recorded: without activity; also recorded: no agonist activity
A1AR agonist activity, calcium influx assay [8]: no activity
A1AR agonist activity, calcium influx assay ([8]; listed as crisaborole): without activity
cAMP Emax, A2BAR ([9]; NECA reference full agonist (100%)): Emax = 17%
cAMP accumulation, A2BAR ([9]; weaker than at the A2AAR): increased cAMP accumulation
Inhibition of specific binding, % inhibition at 100 µM, A3 ([125I]I-AB-MECA) [10]: No significant binding inhibition
inhibition at 100 µM ([10]; read-out: Inhibition of specific binding, % inhibition at 100 µM, A3 ([125I]I-AB-MECA)): 28.8 ± 16.3%
Inhibition of specific binding, % inhibition at 100 µM, A2B ([3H]DPCPX) [11]: <10%

CCn1c(=O)c2c(nc(/C=C/c3ccc(OC)c(OC)c3)n2C)n(CC)c1=O [istradefylline, Istradefylline]
Ki [12]: 0.0022 µM
